Data taken from US20250255882A1, “TREATMENT OF CARDIAC CONDITION RELATED COGNITIVE DYSFUNCTION” (The Trustees of Columbia University in the City of New York, priority 2024, published 2025).

What was measured:
[1] = tested on: mouse model of HF (myocardial infarction, MI); test: novel object recognition test (hippocampal-dependent short-term memory); assay type: in vivo; conditions: MI mice, treated; MI 15%±4%, SHAM 48%±5%
Excerpt: (§1) One-way analysis of variance (ANOVA) was used to compare the difference between the six groups in FIGS. 2B, 2C, 2E and 2F. Tukey's test was used for multiple comparisons; two-way ANOVA was used in FIG. 2D. […] All statistical tests were two sided with the data derived from biologically independent samples.
Next, a novel object recognition test was used to evaluate hippocampal-dependent short-term memory. (see Liu, X. et al. Role of leaky neuronal ryanodine receptors in stress-induced cognitive dysfunction. Cell 150, 1055-1067 (2012); and Bevins, R. A. & Besheer, J. Object recognition in rats and mice: a one-trial non-matching-to-sample learning task to study ‘recognition memory’. Nat. Protoc. 1, 1306-1311 (2006)).

[2] = tested on: mouse model of HF (myocardial infarction, MI); test: MWM test (long-term spatial learning and memory) with probe trial; assay type: in vivo; conditions: MI mice, treated; for target crossings / time spent in the target quadrant: 60-s probe trial day 5; for target crossings: MI 2.4±0.3, SHAM 4.6±0.3; for time spent in the target quadrant: MI 17±1 s, SHAM 25±2 s; for latency to find and reach the hidden platform: day 4 training trials, MI 30±1 s, SHAM 21±2 s
Description: as §1
A MWM test was performed to assess hippocampal-dependent long-term spatial learning and memory.
A probe trial was performed on day 5 of the MWM test.

hippocampal RyR2 = target: T1, hippocampal RyR2 (Mus musculus, UniProt E9Q401); test: SDS-PAGE analysis of modified RyR2 and calstabin2 immunoprecipitated from hippocampal RyR2 complex; assay type: in vivo; conditions: hippocampi of treated MI mice
T1 construct: Hippocampal RyR2 was immunoprecipitated and immunoblotted to detect PTMs; from tissue; host or cells: mouse hippocampus (SHAM / MI mice, treated in vivo)
T1 sequence (E9Q401 whole entry): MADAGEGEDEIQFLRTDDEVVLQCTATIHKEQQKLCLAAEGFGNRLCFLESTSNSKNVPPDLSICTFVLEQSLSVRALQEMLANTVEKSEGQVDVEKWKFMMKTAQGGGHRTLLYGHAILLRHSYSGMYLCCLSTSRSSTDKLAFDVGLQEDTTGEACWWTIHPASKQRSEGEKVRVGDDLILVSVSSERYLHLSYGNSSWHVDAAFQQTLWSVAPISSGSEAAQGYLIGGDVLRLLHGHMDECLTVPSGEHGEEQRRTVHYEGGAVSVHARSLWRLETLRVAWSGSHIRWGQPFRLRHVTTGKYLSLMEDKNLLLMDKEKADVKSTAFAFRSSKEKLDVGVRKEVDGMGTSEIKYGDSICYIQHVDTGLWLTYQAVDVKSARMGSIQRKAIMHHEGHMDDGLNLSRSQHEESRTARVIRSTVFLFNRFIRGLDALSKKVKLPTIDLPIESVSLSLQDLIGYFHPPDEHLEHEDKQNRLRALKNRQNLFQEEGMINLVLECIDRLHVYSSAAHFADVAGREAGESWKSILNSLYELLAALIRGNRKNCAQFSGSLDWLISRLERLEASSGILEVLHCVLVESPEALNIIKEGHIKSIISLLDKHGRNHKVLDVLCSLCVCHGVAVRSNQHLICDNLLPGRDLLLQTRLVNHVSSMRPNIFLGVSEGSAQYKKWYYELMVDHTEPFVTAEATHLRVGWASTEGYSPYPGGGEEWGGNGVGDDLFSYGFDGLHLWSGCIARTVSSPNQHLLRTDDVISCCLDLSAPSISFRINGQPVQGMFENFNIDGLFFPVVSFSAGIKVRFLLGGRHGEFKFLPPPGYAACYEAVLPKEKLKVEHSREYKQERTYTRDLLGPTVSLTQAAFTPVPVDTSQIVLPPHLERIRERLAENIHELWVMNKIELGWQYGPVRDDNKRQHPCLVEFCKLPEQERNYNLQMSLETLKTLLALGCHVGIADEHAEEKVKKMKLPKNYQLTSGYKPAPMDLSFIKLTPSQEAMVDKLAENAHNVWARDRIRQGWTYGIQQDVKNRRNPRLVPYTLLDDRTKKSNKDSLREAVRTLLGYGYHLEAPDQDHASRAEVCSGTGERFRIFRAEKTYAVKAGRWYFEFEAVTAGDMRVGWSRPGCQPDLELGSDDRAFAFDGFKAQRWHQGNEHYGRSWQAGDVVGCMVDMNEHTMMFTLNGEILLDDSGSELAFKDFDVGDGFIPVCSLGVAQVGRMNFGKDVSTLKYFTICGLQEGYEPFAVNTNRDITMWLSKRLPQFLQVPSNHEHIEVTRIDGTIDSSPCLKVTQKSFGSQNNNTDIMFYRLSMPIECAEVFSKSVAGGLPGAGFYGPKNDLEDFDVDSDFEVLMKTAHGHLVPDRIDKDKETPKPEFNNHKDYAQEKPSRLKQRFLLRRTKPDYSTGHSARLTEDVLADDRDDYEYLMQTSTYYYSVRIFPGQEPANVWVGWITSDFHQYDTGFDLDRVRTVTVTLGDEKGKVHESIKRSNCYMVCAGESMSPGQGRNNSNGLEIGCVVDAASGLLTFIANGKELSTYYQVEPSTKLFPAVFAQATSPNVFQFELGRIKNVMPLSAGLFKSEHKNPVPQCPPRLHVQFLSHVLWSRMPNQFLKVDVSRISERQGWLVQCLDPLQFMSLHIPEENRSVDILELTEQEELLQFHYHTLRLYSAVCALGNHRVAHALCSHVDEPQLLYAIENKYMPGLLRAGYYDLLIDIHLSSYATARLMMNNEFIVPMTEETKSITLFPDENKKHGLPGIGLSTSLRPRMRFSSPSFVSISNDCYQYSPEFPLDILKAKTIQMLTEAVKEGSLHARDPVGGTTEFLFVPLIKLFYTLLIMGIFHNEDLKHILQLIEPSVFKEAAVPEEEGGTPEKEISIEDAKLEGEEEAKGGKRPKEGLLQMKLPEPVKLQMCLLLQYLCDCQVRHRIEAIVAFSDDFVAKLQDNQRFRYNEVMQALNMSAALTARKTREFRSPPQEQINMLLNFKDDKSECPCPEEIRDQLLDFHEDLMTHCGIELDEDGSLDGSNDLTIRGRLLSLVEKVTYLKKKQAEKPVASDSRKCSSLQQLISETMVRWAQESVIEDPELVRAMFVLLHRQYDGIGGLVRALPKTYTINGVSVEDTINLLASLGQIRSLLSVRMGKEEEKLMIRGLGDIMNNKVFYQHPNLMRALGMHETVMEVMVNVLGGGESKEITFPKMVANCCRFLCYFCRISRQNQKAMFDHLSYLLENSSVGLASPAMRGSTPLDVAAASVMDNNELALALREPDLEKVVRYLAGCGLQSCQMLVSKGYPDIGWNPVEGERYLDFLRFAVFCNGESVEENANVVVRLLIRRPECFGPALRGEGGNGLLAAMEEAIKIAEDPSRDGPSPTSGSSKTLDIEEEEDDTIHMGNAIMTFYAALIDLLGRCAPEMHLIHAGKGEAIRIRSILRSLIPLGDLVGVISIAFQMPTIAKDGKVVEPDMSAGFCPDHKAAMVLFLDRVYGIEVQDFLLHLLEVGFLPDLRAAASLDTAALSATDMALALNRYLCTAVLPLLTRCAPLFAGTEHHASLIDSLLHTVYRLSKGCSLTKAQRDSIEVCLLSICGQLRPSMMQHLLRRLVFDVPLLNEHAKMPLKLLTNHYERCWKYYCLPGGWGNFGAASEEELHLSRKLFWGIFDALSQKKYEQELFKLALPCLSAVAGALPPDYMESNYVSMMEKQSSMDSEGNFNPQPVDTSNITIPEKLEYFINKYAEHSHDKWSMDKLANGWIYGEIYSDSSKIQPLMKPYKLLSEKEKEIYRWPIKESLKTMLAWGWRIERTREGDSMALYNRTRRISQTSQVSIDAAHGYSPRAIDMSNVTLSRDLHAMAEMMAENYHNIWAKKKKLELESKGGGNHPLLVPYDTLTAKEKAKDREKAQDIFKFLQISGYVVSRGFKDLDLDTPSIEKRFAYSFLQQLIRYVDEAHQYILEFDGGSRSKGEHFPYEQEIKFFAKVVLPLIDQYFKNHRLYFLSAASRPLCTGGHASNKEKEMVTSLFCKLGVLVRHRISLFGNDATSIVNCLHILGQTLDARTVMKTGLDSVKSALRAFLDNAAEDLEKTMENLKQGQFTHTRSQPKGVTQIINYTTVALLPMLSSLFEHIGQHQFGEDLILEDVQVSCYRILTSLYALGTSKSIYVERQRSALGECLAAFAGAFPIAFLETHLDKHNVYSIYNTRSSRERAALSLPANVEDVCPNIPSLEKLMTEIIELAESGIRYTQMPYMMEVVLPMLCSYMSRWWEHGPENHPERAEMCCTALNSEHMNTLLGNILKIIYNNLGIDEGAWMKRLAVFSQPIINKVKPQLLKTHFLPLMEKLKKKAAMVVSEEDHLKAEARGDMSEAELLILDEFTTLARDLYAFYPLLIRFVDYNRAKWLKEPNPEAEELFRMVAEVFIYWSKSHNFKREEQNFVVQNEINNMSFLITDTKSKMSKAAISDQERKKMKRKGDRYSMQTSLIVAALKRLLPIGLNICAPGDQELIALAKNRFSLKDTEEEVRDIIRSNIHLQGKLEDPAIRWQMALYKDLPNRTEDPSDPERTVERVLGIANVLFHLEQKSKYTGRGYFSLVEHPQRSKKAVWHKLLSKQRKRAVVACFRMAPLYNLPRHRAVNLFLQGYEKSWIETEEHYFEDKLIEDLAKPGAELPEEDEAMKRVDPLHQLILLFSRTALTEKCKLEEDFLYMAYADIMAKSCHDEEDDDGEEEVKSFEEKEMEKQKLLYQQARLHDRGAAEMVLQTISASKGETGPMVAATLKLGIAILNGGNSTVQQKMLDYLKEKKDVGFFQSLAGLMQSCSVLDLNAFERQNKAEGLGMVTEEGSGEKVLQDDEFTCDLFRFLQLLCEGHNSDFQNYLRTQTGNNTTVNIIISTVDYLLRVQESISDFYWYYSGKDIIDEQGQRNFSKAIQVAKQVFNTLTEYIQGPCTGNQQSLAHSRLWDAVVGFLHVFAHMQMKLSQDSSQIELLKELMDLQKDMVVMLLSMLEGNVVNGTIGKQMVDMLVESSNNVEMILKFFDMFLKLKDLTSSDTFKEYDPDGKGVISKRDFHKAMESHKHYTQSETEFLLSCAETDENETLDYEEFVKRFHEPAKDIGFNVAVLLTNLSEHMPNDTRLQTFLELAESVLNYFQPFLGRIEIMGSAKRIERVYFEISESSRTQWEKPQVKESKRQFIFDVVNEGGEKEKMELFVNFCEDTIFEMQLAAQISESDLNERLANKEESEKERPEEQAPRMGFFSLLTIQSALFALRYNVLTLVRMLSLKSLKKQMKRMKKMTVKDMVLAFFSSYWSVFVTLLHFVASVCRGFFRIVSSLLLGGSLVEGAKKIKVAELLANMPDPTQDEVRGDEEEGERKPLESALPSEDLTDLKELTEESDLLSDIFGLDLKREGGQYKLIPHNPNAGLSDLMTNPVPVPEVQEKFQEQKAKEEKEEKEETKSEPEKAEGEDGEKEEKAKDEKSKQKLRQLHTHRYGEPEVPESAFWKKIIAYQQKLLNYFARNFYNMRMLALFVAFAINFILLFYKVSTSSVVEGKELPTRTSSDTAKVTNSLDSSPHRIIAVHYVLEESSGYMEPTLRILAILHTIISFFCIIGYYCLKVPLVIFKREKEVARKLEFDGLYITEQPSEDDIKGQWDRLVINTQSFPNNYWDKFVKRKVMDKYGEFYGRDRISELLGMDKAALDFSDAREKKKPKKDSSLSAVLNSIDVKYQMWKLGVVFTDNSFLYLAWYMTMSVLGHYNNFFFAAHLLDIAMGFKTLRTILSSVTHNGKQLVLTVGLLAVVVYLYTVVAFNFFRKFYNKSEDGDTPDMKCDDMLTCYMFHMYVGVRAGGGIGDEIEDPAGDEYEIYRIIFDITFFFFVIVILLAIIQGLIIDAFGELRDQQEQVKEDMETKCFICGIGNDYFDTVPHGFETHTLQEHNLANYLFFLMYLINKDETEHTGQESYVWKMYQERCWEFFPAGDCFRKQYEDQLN
T1 sequence (Q9Z2I2 whole entry partner): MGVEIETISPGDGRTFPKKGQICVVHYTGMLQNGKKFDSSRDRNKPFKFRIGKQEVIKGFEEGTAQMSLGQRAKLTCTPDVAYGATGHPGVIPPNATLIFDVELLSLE
Description: FIGS. 3A-3G illustrate a mouse model of heart failure that is associated with leaky hippocampal RyR2. FIG. 3A is a cryogenic electron microscopy structure of RyR2 (gray, top and side view) showing the location of the Ser2808 in the RY3&4 phosphorylation domain (magenta) and calstabin2 (cyan). RyR2 PKA phosphorylation shifted the channel toward a primed state (yellow) 50.
(§2) PTMs and functional abnormalities of neuronal RyR2 in HF hippocampal samples from MI mice were then evaluated and compared them to SHAM. Hippocampal RyR2 was immunoprecipitated and immunoblotted to detect PTMs.

[3] = tested on: germinal matrix hemorrhage; conditions: cited from earlier work
[4] = tested on: HIV-1-associated neurocognitive disorders; conditions: rat model; cited from earlier work
RyR2 [5] = target: T2, RyR2 (Mus musculus, UniProt E9Q401); test: ER Ca2+ leak measured in microsomes from mouse hippocampi; assay type: in vivo; design: Hippocampal RyR2 was immunoprecipitated and immunoblotted to detect PTMs; from tissue; host or cells: mouse hippocampus (SHAM / MI mice, treated in vivo); conditions: hippocampal microsomes from treated MI mice, versus untreated MI
Description: FIG. 3E are graphs of RyR2 Po, To and Tc in the same groups as FIG. 3D. FIG. 3F is a graph of Ca^2+ leak measured in microsomes from mouse hippocampi of the same groups as FIG. 3D. […] Individual values are shown with the mean±s.e.m. […] Data are derived from biologically independent samples. All statistical tests were two sided.
as §2

[6] = tested on: amyloid and Tau pathology; conditions: Alzheimer's transgenic mice; cited from earlier work
healthy individuals = conditions: sustaining cognitive performance over time; cited from earlier work
RyR2 [7] = target: T2, RyR2; test: caffeine-induced Ca2+ release in primary hippocampal neurons; assay type: cell-based; design: representative images of 14-d cultured hippocampal neurons stimulated with 10 mM caffeine; endogenous in cells; host or cells: primary hippocampal neurons, 14 d in culture; conditions: 10 mM caffeine; neurons treated with isoproterenol plus compound
Description: FIG. 5A presents representative images of 14-d cultured hippocampal neurons stimulated with 10 mM caffeine. For each condition, the Ca^2+ levels are shown at baseline, during stimulation and at recovery. […] Individual values are shown with the mean±s.e.m. […] Scale bar, 10 μm. A reduction in caffeine-induced Ca^2+ release indicates a Ca^2+ depleted ER due to persistent RyR2-mediated Ca^2+ leak. Data are derived from biologically independent samples. All statistical tests were two sided.
To determine whether the activation of the adrenergic pathway indeed causes neuronal RyR2-mediated ER Ca^2+ leak, caffeine (10 mM), a well characterized RyR agonist, was used to assess RyR2 function specifically in hippocampal neurons without interference of other cell types such as glial cells or astrocytes.
Target sequence in this assay (E9Q401 whole entry): as the sequence (E9Q401 whole entry) above

**Q.** Which results are given for `Fc1ccc(Cl)cc1-c1nc(Nc2ccncc2)c2nccnc2n1` [SD-208]?
**A.** discrimination index [1]: 35%±6%; target crossings [2]: 4.5±0.6; time spent in the target quadrant [2]: 27 ± 2 s; latency to find and reach the hidden platform [2]: 15 ± 3 s; RyR2 nitrosylation (hippocampal RyR2): significantly decreased; RyR2 oxidation (hippocampal RyR2): significantly decreased; RyR2 phosphorylation (hippocampal RyR2): significantly decreased; calstabin2 binding to RyR2 (hippocampal RyR2): enabled rebinding of calstabin2; motor and cognitive function ([3]; rat model of germinal matrix hemorrhage): partial recovery; germinal matrix hemorrhage ([3]; rat model): inhibit germinal matrix hemorrhage; spatial learning [4]: improved; ER Ca2+ leak (RyR2 [5]): reduced

**Q.** For `CC(C)NCC(O)COc1cccc2ccccc12` (stereo not drawn) [propranolol], which target crossings [2] is on record?
**A.** 3.5±0.6

**Q.** And the “time spent in the target quadrant” value [2]?
**A.** 26 ± 2 s

**Q.** And the “latency to find and reach the hidden platform” value [2]?
**A.** 17 ± 3 s

**Q.** What about the RyR2 nitrosylation (hippocampal RyR2) of the same compound?
**A.** significantly reduced

**Q.** And the RyR2 phosphorylation (hippocampal RyR2)?
**A.** significantly reduced

**Q.** What about the “calstabin2 binding to RyR2” value (hippocampal RyR2) of the same compound?
**A.** restored calstabin2 binding

**Q.** And the “amyloid and Tau pathology” value [6]?
**A.** reduced

**Q.** What about the effects on cognition (healthy individuals) of the same compound?
**A.** beneficial effects

**Q.** And the “prevention of the small caffeine-induced Ca2+ release of isoproterenol-treated neurons” value (RyR2 [7])?
**A.** prevented
